In PMC8537953 (Viruses, 2021):
pEC50: −log10 of the molar value. Like-named read-outs stand apart in the source and are kept apart here.

How the values were obtained:
[1] = system: SARS-CoV-2; assay: microbe, parasite or virus in culture; assay type: cell-based; settings: Severe acute respiratory syndrome coronavirus 2, Vero C1008, 6 h, read-out: % inhibition of SARS-CoV-2 infection, post-entry treatment
[2] = human, in vivo, cited from earlier work
[3] = system: influenza A; settings: read-out: in vitro EC50 (influenza A); cited from earlier work
[4] = in vitro; settings: human
[5] = cited from earlier work
[6] = system: SARS-CoV-2; settings: read-out: EC50 against SARS-CoV-2; cited from earlier work

CC(N)C12CC3CC(CC(C3)C1)C2 (centres unmarked) [Rimantadine, rimantadine]
inhibition at 230 µM [1]: > 99% | Cmax [2]: 2200 nM

NC12CC3CC(CC(C3)C1)C2 [Amantadine, amantadine]
pEC50 [3]: 4.80 | viability [4]: > 50% | PPB, plasma protein binding, % of compound bound to plasma proteins ([5]; plasma): 67% | Cmax ([2]; 200 mg): 2700 nM

CCC(CC)COC(=O)[C@H](C)N[P@](=O)(OC[C@H]1O[C@@](C#N)(c2ccc3c(N)ncnn23)[C@H](O)[C@@H]1O)Oc1ccccc1 [Remdesivir, remdesivir]
pEC50 [6]: 5.60

CC12CC3CC(C)(C1)CC(N)(C3)C2 [Memantine, memantine]
PPB, plasma protein binding, % of compound bound to plasma proteins ([5]; ref FDA reports): 45%
